Experiments:
[1] = target: T1, Replicase polyprotein 1ab (Severe acute respiratory syndrome coronavirus 2, UniProt P0DTD1)
[2] = Cytotoxicity against African green monkey Vero E6 cells incubated for 24 hrs by CCK8 assay; format: toxicity, cell-based, Vero C1008; settings: chlorocebus sabaeus
[3] = Observed MRT (0 to infinity) in ICR mouse at 20 mg/kg, po; format: ADME, organism-based; settings: in vivo
[4] = Half-life in ICR mouse at 20 mg/kg, po; format: ADME, organism-based; settings: in vivo
[5] = AUC (0 to infinity) in ICR mouse at 20 mg/kg, po; format: ADME, organism-based; settings: in vivo
[6] = AUClast in ICR mouse at 20 mg/kg, po; format: ADME, organism-based; settings: in vivo
[7] = Cmax in ICR mouse at 20 mg/kg, po; format: ADME, organism-based; settings: in vivo
[8] = Tmax in ICR mouse at 20 mg/kg, po; format: ADME, organism-based; settings: in vivo
[9] = target: Replicase polyprotein 1ab (Severe acute respiratory syndrome coronavirus 2) (UniProt P0DTD1); settings: dose 31.25-1000 nM, time 100.0 sec
[10] = target: T1, Replicase polyprotein 1ab; remark: listed apart in the source
[11] = target: Replicase polyprotein 1ab (Severe acute respiratory syndrome coronavirus 2) (UniProt P0DTD1); settings: dose 31.25-1000 nM, time 100.0 sec; remark: listed apart in the source
[12] = target: T1, Replicase polyprotein 1ab; remark: listed apart in the source

Row | Structure (SMILES) | IC50 [1] [µM] | other results
1 | O=C(c1cc(=O)[nH]c2ccccc12)N1CCC(Nc2ccc(Cl)c(Cl)c2)C1 (configuration not stated) | 8.33 | 
2 | O=C(NCCCN1CCOCC1)C1CN(c2ccc(Cl)c(Cl)c2)CCN1C(=O)c1cc(=O)[nH]c2ccccc12 (configuration not stated) | 1.34 | 
3 | O=C(N[C@H]1CCC[C@H]1Nc1c(C(=O)N2CCOCC2)cc(Br)cc1[N+](=O)[O-])c1cc(=O)[nH]c2ccccc12 | 0.0209 | 
4 | COc1ccc2[nH]c(=O)cc(C(=O)N[C@H]3CCCC[C@H]3Nc3c(C(=O)N4CCN(C)CC4)cc(Br)cc3[N+](=O)[O-])c2c1 | 0.018 | 
5 | COc1ccc2[nH]c(=O)cc(C(=O)N[C@H]3CCCC[C@H]3Nc3c(C(=O)N4CCOCC4)cc(C4CC4)cc3[N+](=O)[O-])c2c1 | 0.0106 | CC50 at 24 h [2]: > 200 µM
6 | O=C(NCC1CCO1)C1CN(c2ccc(Cl)c(Cl)c2)CCN1C(=O)c1cc(=O)[nH]c2ccccc12 (configuration not stated) | 0.31 | 
7 | O=C(NCCC(F)(F)F)[C@@H]1CN(c2ccc(Cl)c(Cl)c2)CCN1C(=O)c1cc(=O)[nH]c2ccccc12 | 0.15 | 
8 | O=C(NCC1CCC1)C1CN(c2ccc(Cl)c(Cl)c2)CCN1C(=O)c1cc(=O)[nH]c2ccccc12 (configuration not stated) | 0.3 | 
9 | O=C(N[C@H]1CCCC[C@H]1Nc1c(C(=O)N2CCOCC2)cc(Br)cc1[N+](=O)[O-])c1cc(=O)[nH]c2c(F)cccc12 | 0.0269 | CC50 at 24 h [2]: > 200 µM; MRT inf [3]: 39 min; half-life [4]: 48 min; AUC(0-inf) [5]: 0.0216 µg·h/mL; AUC(0-t) [6]: 0.0212 µg·h/mL; Cmax [7]: 0.0339 µg/mL; Tmax [8]: 15 min; K [9]: 0.01 s⁻¹; Kd [10]: 0.019 µM; K [11]: 5.4 10^5/M/s
10 | CNC(=O)c1cccc([N+](=O)[O-])c1N[C@@H]1CCCC[C@@H]1NC(=O)c1cc(=O)[nH]c2ccccc12 | 1.24 | 
11 | O=C(NCCC1CCOCC1)C1CN(c2ccc(Cl)c(Cl)c2)CCN1C(=O)c1cc(=O)[nH]c2ccccc12 (configuration not stated) | 1.14 | 
12 | CN1CCN(C(=O)c2cc(Br)cc([N+](=O)[O-])c2N[C@@H]2CCC[C@@H]2NC(=O)c2cc(=O)[nH]c3ccccc23)CC1 | 0.0229 | 
13 | O=C(C1CN(c2ccc(Cl)c(Cl)c2)CCN1C(=O)c1cc(=O)[nH]c2ccccc12)N1CCOCC1 (configuration not stated) | 9.47 | 
14 | CNC(=O)c1cc(Br)cc([N+](=O)[O-])c1N[C@@H]1CCCC[C@@H]1NC(=O)c1cc(=O)[nH]c2c(F)cccc12 | 0.057 | CC50 at 24 h [2]: > 200 µM; MRT inf [3]: 93.6 min; half-life [4]: 139 min; AUC(0-inf) [5]: 0.0582 µg·h/mL; AUC(0-t) [6]: 0.0561 µg·h/mL; Cmax [7]: 0.0636 µg/mL; Tmax [8]: 3 min; K [9]: 0.018 s⁻¹; Kd [10]: 0.0236 µM; K [11]: 7.5 10^5/M/s
15 | O=C(N[C@H]1CCCC[C@H]1Nc1c(C(=O)N2CCOCC2)cc(Br)cc1[N+](=O)[O-])c1cc(=O)[nH]c2ccccc12 | 0.0327 | CC50 at 24 h [2]: > 200 µM
16 | O=C(NCCN1CCOCC1)C1CN(c2ccc(Cl)c(Cl)c2)CCN1C(=O)c1cc(=O)[nH]c2ccccc12 (configuration not stated) | 0.84 | 
17 | O=C(NCCC1CCCC1)C1CN(c2ccc(Cl)c(Cl)c2)CCN1C(=O)c1cc(=O)[nH]c2ccccc12 (configuration not stated) | 0.92 | 
18 | O=C(N[C@H]1CCC[C@H]1Nc1c(C(=O)N2CCOCC2)cc(C2CC2)cc1[N+](=O)[O-])c1cc(=O)[nH]c2c(F)cccc12 | 0.0213 | 
19 | COc1ccc2[nH]c(=O)cc(C(=O)N[C@H]3CCCC[C@H]3Nc3c(C(=O)N4CCOCC4)cc(Br)cc3[N+](=O)[O-])c2c1 | 0.0292 | 

Row | Structure (SMILES) | IC50 [1] [µM] | other results
20 | COc1ccc2[nH]c(=O)cc(C(=O)N[C@H]3CCC[C@H]3Nc3c(C(=O)N4CCOCC4)cc(C4CC4)cc3[N+](=O)[O-])c2c1 | 0.0203 | 
21 | O=C(c1cc(=O)[nH]c2ccccc12)N1CCN(c2ccc(Cl)c(Cl)c2)CC1Cc1ccccc1 (configuration not stated) | > 20 | 
22 | O=C(N[C@H]1CCCC[C@H]1Nc1c(C(=O)N2CCOCC2)cc(C2CC2)cc1[N+](=O)[O-])c1cc(=O)[nH]c2c(F)cccc12 | 0.0115 | 
23 | O=C(C1CN(c2ccc(Cl)c(Cl)c2)CCN1C(=O)c1cc(=O)[nH]c2ccccc12)N1CC2(COC2)C1 (configuration not stated) | 2.11 | 
24 | CCCCNC(=O)C1CN(c2ccc(Cl)c(Cl)c2)CCN1C(=O)c1cc(=O)[nH]c2ccccc12 (configuration not stated) | 0.58 | 
25 | O=C(N[C@H]1CCC[C@H]1Nc1c(C(=O)N2CCOCC2)cc(C2CC2)cc1[N+](=O)[O-])c1cc(=O)[nH]c2ccccc12 | 0.0235 | 
26 | O=C(NCCC(F)(F)F)[C@H]1CN(c2ccc(Cl)c(Cl)c2)CCN1C(=O)c1cc(=O)[nH]c2ccccc12 | 0.54 | 
27 | COc1ccc2[nH]c(=O)cc(C(=O)N[C@H]3CCC[C@H]3Nc3c(C(=O)N4CCN(C)CC4)cc(C4CC4)cc3[N+](=O)[O-])c2c1 | 0.024 | 
28 | CN1CCN(C(=O)c2cc(C3CC3)cc([N+](=O)[O-])c2N[C@@H]2CCC[C@@H]2NC(=O)c2cc(=O)[nH]c3ccccc23)CC1 | 0.0249 | 
29 | O=C(N[C@H]1CCC[C@H]1Nc1c(C(=O)N2CCOCC2)cc(Br)cc1[N+](=O)[O-])c1cc(=O)[nH]c2c(F)cccc12 | 0.0365 | 
30 | O=C(NCCC1CC1)C1CN(c2ccc(Cl)c(Cl)c2)CCN1C(=O)c1cc(=O)[nH]c2ccccc12 (configuration not stated) | 0.52 | 
31 | CNC(=O)c1cc(Br)cc([N+](=O)[O-])c1N[C@@H]1CCCC[C@@H]1NC(=O)c1cc(=O)[nH]c2ccc(F)cc12 | 0.0582 | CC50 at 24 h [2]: > 200 µM
32 | CNC(=O)c1cc(Br)cc([N+](=O)[O-])c1N[C@H]1CCC[C@H]1NC(=O)c1cc(=O)[nH]c2ccccc12 | 0.0513 | 
33 | O=C1CC2(CCN(C(=O)C3CN(c4ccc(Cl)c(Cl)c4)CCN3C(=O)c3cc(=O)[nH]c4ccccc34)CC2)C1 (configuration not stated) | 1.29 | 
34 | CN(CC1COCCO1)C(=O)C1CN(c2ccc(Cl)c(Cl)c2)CCN1C(=O)c1cc(=O)[nH]c2ccccc12 (configuration not stated) | 2.61 | 
35 | CN1CCN(C(=O)c2cc(C3CC3)cc([N+](=O)[O-])c2N[C@@H]2CCC[C@@H]2NC(=O)c2cc(=O)[nH]c3c(F)cccc23)CC1 | 0.0285 | 
36 | CN1CCN(C(=O)C2CN(c3ccc(Cl)c(Cl)c3)CCN2C(=O)c2cc(=O)[nH]c3ccccc23)CC1 (configuration not stated) | 1.32 | 
37 | CNC(=O)c1cc(C2CC2)cc([N+](=O)[O-])c1N[C@@H]1CCCC[C@@H]1NC(=O)c1cc(=O)[nH]c2ccccc12 | 0.0207 | CC50 at 24 h [2]: > 200 µM
38 | CNC(=O)c1cc(Br)cc([N+](=O)[O-])c1N[C@@H]1CCCC[C@@H]1NC(=O)c1cc(=O)[nH]c2cc(F)ccc12 | 0.105 | 

Row | Structure (SMILES) | IC50 [1] [µM] | other results
39 | O=C(C1CN(c2ccc(Cl)c(Cl)c2)CCN1C(=O)c1cc(=O)[nH]c2ccccc12)N1CCC2(CC1)COC2 (configuration not stated) | 2.22 | 
40 | O=C(N[C@@H]1CCC[C@@H]1Nc1ccc(Cl)c(Cl)c1)c1cc(=O)[nH]c2ccccc12 | > 10 | 
41 | O=C(c1cc(=O)[nH]c2ccccc12)N1CCN(c2ccc(Cl)c(Cl)c2)CC1CN1CCOCC1 (configuration not stated) | 0.15 | CC50 at 24 h [2]: 381 µM; IC50 [12]: 0.15 µM; K [9]: 0.028 s⁻¹; Kd [10]: 0.117 µM
42 | O=C(NCC1CCCO1)C1CN(c2ccc(Cl)c(Cl)c2)CCN1C(=O)c1cc(=O)[nH]c2ccccc12 (configuration not stated) | 0.35 | 
43 | CC1(C)C2CN(C(=O)C3CN(c4ccc(Cl)c(Cl)c4)CCN3C(=O)c3cc(=O)[nH]c4ccccc34)CC21 (configuration not stated) | 4.51 | 
44 | O=C(NCC1CCCC1)C1CN(c2ccc(Cl)c(Cl)c2)CCN1C(=O)c1cc(=O)[nH]c2ccccc12 (configuration not stated) | 0.28 | 
45 | O=C(NCC1CC1)C1CN(c2ccc(Cl)c(Cl)c2)CCN1C(=O)c1cc(=O)[nH]c2ccccc12 (configuration not stated) | 0.34 | 
46 | O=C(c1cc(=O)[nH]c2ccccc12)N1CCN(c2ccc(Cl)c(Cl)c2)C[C@@H]1CC1CCCCC1 | > 20 | 
47 | O=C(NCC1CCCCC1)C1CN(c2ccc(Cl)c(Cl)c2)CCN1C(=O)c1cc(=O)[nH]c2ccccc12 (configuration not stated) | 0.44 | 
48 | O=C(N[C@H]1CCCC[C@H]1Nc1c(C(=O)N2CCOCC2)cc(C2CC2)cc1[N+](=O)[O-])c1cc(=O)[nH]c2ccccc12 | 0.0096 | CC50 at 24 h [2]: > 200 µM
49 | CN1CCN(C(=O)c2cc(Br)cc([N+](=O)[O-])c2N[C@@H]2CCC[C@@H]2NC(=O)c2cc(=O)[nH]c3c(F)cccc23)CC1 | 0.0286 | 
50 | O=C(N[C@H]1CCCC[C@H]1Nc1c(C(=O)N2CCOCC2)cc(Br)cc1[N+](=O)[O-])c1cc(=O)[nH]c2cc(F)ccc12 | 0.0387 | 
51 | CNC(=O)c1cc(Br)cc([N+](=O)[O-])c1NC1CCN(C(=O)c2cc(=O)[nH]c3ccccc23)C1 (configuration not stated) | 0.195 | 
52 | O=C(NCCC(F)(F)F)C1CN(c2ccc(Cl)c(Cl)c2)CCN1C(=O)c1cc(=O)[nH]c2ccccc12 (configuration not stated) | 0.2 | CC50 at 24 h [2]: 50.3 µM
53 | O=C(NCCCC(F)(F)F)C1CN(c2ccc(Cl)c(Cl)c2)CCN1C(=O)c1cc(=O)[nH]c2ccccc12 (configuration not stated) | 0.2 | CC50 at 24 h [2]: 69.4 µM
54 | O=C1CCN(C(=O)C2CN(c3ccc(Cl)c(Cl)c3)CCN2C(=O)c2cc(=O)[nH]c3ccccc23)CC1 (configuration not stated) | 3.31 | 
55 | O=C1CC2CN(C(=O)C3CN(c4ccc(Cl)c(Cl)c4)CCN3C(=O)c3cc(=O)[nH]c4ccccc34)CC2C1 (configuration not stated) | 1.85 | 
56 | CNC(=O)c1cc(Br)cc([N+](=O)[O-])c1N[C@@H]1CCCC[C@@H]1NC(=O)c1cc(=O)[nH]c2ccccc12 | 0.0408 | CC50 at 24 h [2]: > 200 µM; MRT inf [3]: 305 min; half-life [4]: 231 min; AUC(0-inf) [5]: 0.0299 µg·h/mL; AUC(0-t) [6]: 0.0236 µg·h/mL; Cmax [7]: 0.0113 µg/mL; Tmax [8]: 15 min; K [9]: 0.019 s⁻¹; Kd [10]: 0.0089 µM; K [11]: 2.1 10^5/M/s

From ChEMBL document CHEMBL5523769, “Discovery of Novel Nonpeptidic and Noncovalent Small Molecule 3CLpro Inhibitors as anti-SARS-CoV-2 Drug Candidate” (J Med Chem, 2024)
